# In article PMC11882969 (Nature Communications, 2025):
# Values joined by “and” are separate entries in the source; they are usually repeats but may differ in a detail not shown here. Identical values can stand only once. “Also recorded” adds a separate entry of the source.
# Key:
# mice [1] = assay: Tail flick, 50 °C water bath; format: in vivo, mouse; details: for analgesic response normalised to baseline, WT vs CB1R KO (Figure5d), individual animals / Response relative to Baseline, individual animals (FigS11c): 0.2 mg/kg; for Response relative to Baseline, individual animals (FigS11c): test not printed on the sheet
# mice [2] = assay: Hot plate, 52 °C; format: in vivo, mouse; details: for Jump / Paw lick / Paw shake / Paw withdrawal: individual animals, FigS11b
# mice [3] = assay: Acetone test, cold allodynia after spared nerve injury; format: in vivo, mouse
# Method: Mice were placed on a wire mesh and thirty min after an i.p. injection of the compounds we applied a drop (50 μL) of acetone on the ventral aspect of the hindpaw, 5 times every 30 sec. We recorded the number of nocifensive behaviors (paw lifts/licks/shakes/bites) over the 5 applications.
# [4] = biological target: T1, CB1R with G protein (Gi1-3, Go) (Homo sapiens, UniProt P21554); assay: GTP turnover assay (GTPase-Glo); format: biochemical; details: replicates, sheet FigS3c
# T1 construct: a N-terminal FLAG tag and C-terminal histidine tag was added to human full-length CB1; FLAG (N); histidine tag (C); made in house; host or cells: CB1R: Spodoptera frugiperda Sf9; G proteins: Trichoplusia ni Hi5
# T1 sequence (P21554 whole entry): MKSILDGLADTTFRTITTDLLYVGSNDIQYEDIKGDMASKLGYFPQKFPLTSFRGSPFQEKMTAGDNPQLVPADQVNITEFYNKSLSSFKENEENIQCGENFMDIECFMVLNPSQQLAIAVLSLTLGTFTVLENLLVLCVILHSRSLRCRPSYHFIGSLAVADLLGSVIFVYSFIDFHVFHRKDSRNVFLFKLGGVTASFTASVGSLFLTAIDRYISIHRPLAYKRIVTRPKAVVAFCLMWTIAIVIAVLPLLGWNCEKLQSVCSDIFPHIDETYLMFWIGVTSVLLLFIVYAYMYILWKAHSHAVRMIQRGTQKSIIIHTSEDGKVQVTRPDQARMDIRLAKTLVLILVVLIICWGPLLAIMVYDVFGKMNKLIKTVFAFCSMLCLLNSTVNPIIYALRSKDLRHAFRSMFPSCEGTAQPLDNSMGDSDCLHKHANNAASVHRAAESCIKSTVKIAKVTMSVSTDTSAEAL
# Method: Analysis of GTP turnover was performed by using a modified protocol of the GTPase-Glo^TM assay (Promega) described previously. Ligand-bound (10 μM ligand incubated for one hour at room temperature) or apo CB1R (1 μM) was mixed with G protein (1 μM) in 20 mM HEPES, pH 7.5, 50 mM NaCl, 0.01% L-MNG/0.001% CHS, 100 μM TCEP, 10 μM GDP and 10 μM GTP and incubated at room temperature. GTPase-Glo-reagent was added to the sample after incubation for 60 min (Gi1-3) and 20 min for (Go). Luminescence was measured after the addition of detection reagent and incubation for 10 min at room temperature using a SpectraMax Paradigm plate reader.
# mice [5] = assay: Catalepsy test, vertical wire mesh; format: in vivo, mouse; details: for Individual animal values (FigS11d): test not printed on the sheet
# Method: Thirty min after an i.p. injection of the compounds, mice were placed on a vertical wire mesh and the latency to move all four paws was recorded.
# [6] = Pharmacokinetics: plasma, brain, CSF; details: 0.2 mg/kg i.p., CD-1 mice
smiles,measurement,setting,value
COC(=O)[C@@](C)(NC(=O)c1cc(C)n(-c2cccc(C(F)(F)F)c2)n1)c1cccs1 [‘1350],tail flick latency on cotreatment with morphine,mice [1]; 0.05 and 0.1 mg/kg plus morphine 3.0 mg/kg i.p.,significantly longer tail-flick latencies than did mice injected with morphine alone
same,"effect of CB1R knockout on analgesia, tail flick",mice [1]; CB1R KO mice,completely blocked the analgesic effect
same,"analgesic response normalised to baseline, WT vs CB1R KO (Figure5d), individual animals",mice [1]; CB1R KO mice,106.345 and 98.767 and 101.721 and 166.196 and 107.501
same,"Response relative to Baseline, individual animals (FigS11c)",mice [1]; CB2R KO mice,164.985 and 191.573 and 174.006 and 295.549 and 230.504 and 308.843 and 149.555 and 202.493 and 243.323 and 186.825
same,"tail flick response normalised to baseline (Figure4a), individual animals",mice [1]; Dose 0.05 mg/kg,119.013 and 100.323 and 160.799 and 150.926 and 127.123
same,"tail flick response normalised to baseline (Figure4a), individual animals",mice [1]; Dose 0.1 mg/kg,155.51 and 183.368 and 185.307 and 158.155 and 125.713
same,"tail flick response normalised to baseline (Figure4a), individual animals",mice [1]; Dose 0.2 mg/kg,215.281 and 170.849 and 208.757 and 269.409 and 238.025
same,"tail flick response normalised to baseline (Figure4a), individual animals",mice [1]; Dose 0.5 mg/kg,229.386 and 270.644 and 271.701 and 225.86 and 268.175
same,"analgesic response normalised to baseline, WT vs CB1R KO (Figure5d), individual animals",mice [1]; WT mice,175.053 and 136.358 and 121.523 and 181.234 and 162.69 and 195.08 and 109.284 and 151.687 and 140.809 and 142.663
same,"Response relative to Baseline, individual animals (FigS11c)",mice [1]; WT mice,303.35 and 281.096 and 250.176 and 198.641 and 149.684 and 198.173 and 421.644 and 117.592 and 166.55 and 75.1933
same,lowest dose with significantly increased tail flick latency,"mice [1]; i.p., 30 min after injection",0.1 mg/kg
same,Jump,mice [2]; 0.05 mg/kg,0 (4×) and 2
same,Paw lick,mice [2]; 0.05 mg/kg,0 (3×) and 2 and 12
same,Paw shake,mice [2]; 0.05 mg/kg,20 and 22 and 48 and 24 and 12
same,Paw withdrawal,mice [2]; 0.05 mg/kg,28 and 42 and 47 and 50 and 14
same,Jump,mice [2]; 0.1 mg/kg,0
same,Paw lick,mice [2]; 0.1 mg/kg,2 and 0 (3×) and 8
same,Paw shake,mice [2]; 0.1 mg/kg,16 and 18 and 6 and 22 and 4
same,Paw withdrawal,mice [2]; 0.1 mg/kg,20 and 30 and 22 and 34 and 14
same,Jump,mice [2]; 0.2 mg/kg,8 and 0 and 34 and 14 (2×)
same,Paw lick,mice [2]; 0.2 mg/kg,0
same,Paw shake,mice [2]; 0.2 mg/kg,2 (2×) and 4 and 0 (2×)
same,Paw withdrawal,mice [2]; 0.2 mg/kg,16 and 22 and 18 (2×) and 12
same,"effect of CB2R knockout on analgesia, hot plate",mice [2]; CB2R KO mice,did not decrease the analgesic effects
same,"hot plate response normalised to baseline (Figure4b), individual animals",mice [2]; Dose 0.05 mg/kg,62.7 and 108.4 and 141.6 and 81.1 and 84.7 and 79 and 84.5 and 85.4 and 86.2 and 81.8
same,"hot plate response normalised to baseline (Figure4b), individual animals",mice [2]; Dose 0.1 mg/kg,100.2 and 152.6 and 103.1 and 113.3 and 127.2 and 80.8 and 109.9 and 151.2 and 138.2 and 159.1
same,"hot plate response normalised to baseline (Figure4b), individual animals",mice [2]; Dose 0.2 mg/kg,191.789 and 117.988 and 110.937 and 200.407 and 123.942
same,"hot plate response normalised to baseline (Figure4b), individual animals",mice [2]; Dose 0.5 mg/kg,244.124 and 212.316 and 122.062 and 249.608 and 217.8
same,lowest dose with significantly increased hot plate latency,"mice [2]; i.p., 30 min after injection",0.1 mg/kg
same,"acetone test response after spared nerve injury (Figure5b), individual animals",mice [3]; Dose 0.05 mg/kg,48 and 66 and 108 and 56 and 46
same,"acetone test response after spared nerve injury (Figure5b), individual animals",mice [3]; Dose 0.1 mg/kg,38 and 48 and 28 and 64 and 18
same,"acetone test response after spared nerve injury (Figure5b), individual animals",mice [3]; Dose 0.2 mg/kg,26 and 54 and 32
same,"lowest dose with significant anti-allodynia, acetone test",mice [3]; i.p.,0.05 mg/kg
same,effect on acetone-induced nocifensive behaviors,"mice [3]; spared nerve injury, i.p.",strongly reduced spared nerve injury-induced cold allodynia
same,"GTP turnover, normalised (FUB about 100)",[4]; Gi2,96.8998 and 91.3876 and 87.4526 and 89.8295 and 89.8906 and 82.6279
same,"GTP turnover, normalised (FUB about 100)",[4]; Gi3,81.2301 and 82.2228 and 81.0231 and 89.3188 and 82.6055 and 85.3572
same,"GTP turnover, normalised (FUB about 100)",[4]; Goa,86.5272 and 96.4818 and 93.6031 and 96.9291 and 99.611 and 94.5957
same,"GTP turnover, normalised (FUB about 100)","[4]; first block, G protein not printed (Gi2, Gi3, Goa follow)",83.1663 and 86.2553 and 85.2024 and 81.617 and 83.7026 and 83.2158
same,"catalepsy (Figure6c), individual animals",mice [5]; 0.2 mg/kg dose,7 and 4 and 15 and 2 (2×)
same,"catalepsy (Figure6c), individual animals",mice [5]; 0.5 mg/kg dose,2 and 10 and 30 and 20 and 5 and 0.5 and 2.4 and 2.2 and 2.3 and 0.7 and 1 and 2.7 and 2.9 and 2.1 and 1.4
same,"catalepsy (Figure6c), individual animals",mice [5]; 1 mg/kg dose,16 and 5 and 4 and 30 and 6
same,catalepsy at a sedating dose,mice [5]; 1 mg/kg i.p.,"non-significant, but nevertheless, increased latency to move the paws"
same,catalepsy in CB1R knockout,"mice [5]; 1 mg/kg, CB1R KO mice",eliminated this minimal cataleptic effect
same,catalepsy in CB2R knockout,"mice [5]; 1 mg/kg, CB2R KO vs wildtype",statistically significant increase in catalepsy
same,Individual animal values (FigS11d),"mice [5]; CB1R KO mice, 1 mg/kg",3.1 and 2.8 and 2.7 and 1.8
same,Individual animal values (FigS11d),"mice [5]; CB2R KO mice, 0.2 mg/kg",2.2 and 2.7 and 4 and 4.2 and 2.8
same,Individual animal values (FigS11d),"mice [5]; CB2R KO mice, 0.5 mg/kg",3.3 and 4.3 and 29.3 and 28 and 5.6
same,Individual animal values (FigS11d),"mice [5]; CB2R KO mice, 1 mg/kg",40 and 2
same,Individual animal values (FigS11d),"mice [5]; WT mice, 0.2 mg/kg",7 and 4 and 15 and 2
same,Individual animal values (FigS11d),"mice [5]; WT mice, 0.5 mg/kg",2.4 and 2.2 and 2.3 and 0.7 and 1 and 2.7 and 2.1 and 1.4 and 2 and 10 and 30 and 20 and 5
same,Individual animal values (FigS11d),"mice [5]; WT mice, 1 mg/kg",16 and 5 and 4 and 30 and 6
same,dose at which catalepsy starts,mice [5]; i.p.,1 mg/kg
same,"catalepsy, latency to move all four paws","mice [5]; i.p., ‘1350 at 0.2 or 0.5 mg/kg, haloperidol 1.0 mg/kg",did not induce cataleptic behavior
same,brain AUC0→inf,[6],8180 ng·min/mL
same,brain Cmax,[6],44.1 ng/g
same,level in CSF,[6],but not CSF compartments; also recorded: below the quantification limit
